Measured values taken from patent US8003648B2, “Heterocyclic GPR40 modulators” (Amgen Inc., priority 2006, dated 2011).

Molecular target: T1, human GPR40 (Homo sapiens, UniProt O14842)
T1 construct: host or cells: CHO cells
Experiment: Cell-based aequorin assay using human GPR40
Conditions: activation of human GPR40; CHO cells stably transfected with GPR40 and Aequorin; 0.01% HSA; aequorin luminescence
Description: Cell-based aequorin assays were employed to characterize the modulatory activity of compounds on the GPR40 signaling pathway. In an exemplary assay, CHO cells were stably transfected with both GPR40 and Aequorin (Euroscreen). Cells were detached from the tissue culture dish with 2 mL of trypsin (0.25% (w/v)). Trypsinization was halted with 28 mL of Hanks Buffered Salt Solution containing 20 mM Hepes (H/HBSS) and 0.01% fatty acid-free human serum albumin (HSA). Coelantrazine is added to 1 ug/mL, and the cells were incubated for 2 hours at room temperature. Compounds were dissolved in DMSO for preparation of 10 mM stock solutions. Compounds were diluted in H/HBSS containing 0.01% HSA. Serial dilutions of the test compounds were prepared to determine dose response.
Aequorin luminescence measurements were made using an EG&G Berthold 96-well luminometer, and the response was measured over a 20 second interval after cells and compounds were mixed. The maximum relative light units was plotted to determine dose response. The EC50 (effective concentration to reach 50% maximal response) was determined from the dose response plot.
Table 1 presents representative data (EC50 values) obtained for exemplary compounds of the invention for the activation of human GPR40. […]

T1 sequence (O14842 whole entry): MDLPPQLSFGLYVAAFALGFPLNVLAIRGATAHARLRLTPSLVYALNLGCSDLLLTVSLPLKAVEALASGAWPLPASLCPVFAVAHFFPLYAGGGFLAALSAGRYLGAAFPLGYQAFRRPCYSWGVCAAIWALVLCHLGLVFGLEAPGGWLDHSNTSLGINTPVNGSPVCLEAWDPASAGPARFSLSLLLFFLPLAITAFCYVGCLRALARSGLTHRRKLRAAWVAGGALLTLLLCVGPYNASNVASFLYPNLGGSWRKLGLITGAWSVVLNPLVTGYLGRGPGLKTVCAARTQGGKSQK

| Structure (SMILES) | EC50 |
| --- | --- |
| Cc1c(Cl)cccc1-c1cccc(COc2ccc(C(CC(=O)O)c3ccon3)cc2)c1 (stereo not shown) [Example 1, 3-(4-(3-(3-Chloro-2-methylphenyl)benzyloxy)phenyl)-3-(isoxazol-3-yl)propanoic acid] | 10 to 100 nM |
| O=C(O)C[C@@H](c1ccc(OCc2cccc(-c3ccc(C(F)(F)F)cc3)c2)cc1)c1ccon1 [Example 2, (S)-3-(4-(3-(4-(Trifluoromethyl)phenyl)benzyloxy)phenyl)-3-(isoxazol-3-yl)propanoic acid] | 10 to 100 nM |
| O=C(O)C[C@H](c1ccc(OCc2cccc(-c3ccc(C(F)(F)F)cc3)c2)cc1)c1ccon1 [Example 3, (R)-3-(4-(3-(4-(Trifluoromethyl)phenyl)benzyloxy)phenyl)-3-(isoxazol-3-yl)propanoic acid] | 1000 to 10000 nM |
| CCOc1cc(Cl)ccc1-c1ccc(COc2ccc([C@H](CC(=O)O)c3ccon3)cc2)cc1 [Example 4, (S)-3-(4-(4-(4-Chloro-2-ethoxyphenyl)benzyloxy)phenyl)-3-(isoxazol-3-yl)propanoic acid] | 10 to 100 nM |
| CCOc1cc(Cl)ccc1-c1ccc(COc2ccc([C@@H](CC(=O)O)c3ccon3)cc2)cc1 [Example 5, (R)-3-(4-(4-(4-Chloro-2-ethoxyphenyl)benzyloxy)phenyl)-3-(isoxazol-3-yl)propanoic acid] | 1000 to 10000 nM |
| Cc1nc(-c2ccc(C(F)(F)F)cc2)sc1COc1ccc([C@@H](CC(=O)O)c2ccon2)cc1 [Example 6, (R)-3-(Isoxazol-3-yl)-3-(4-((4-methyl-2-(4-(trifluoromethyl)phenyl)thiazol-5-yl)methoxy)phenyl)propanoic acid] | 100 to 1000 nM |
| Cc1nc(-c2ccc(C(F)(F)F)cc2)sc1COc1ccc([C@H](CC(=O)O)c2ccon2)cc1 [Example 7, (S)-3-(Isoxazol-3-yl)-3-(4-((4-methyl-2-(4-(trifluoromethyl)phenyl)thiazol-5-yl)methoxy)phenyl)propanoic acid] | 10 to 100 nM |
| Cc1nc(-c2ccc(C(F)(F)F)cc2)sc1COc1ccc(C(CC(=O)O)C2=NOCC2)cc1 (stereo not shown) [Example 8] | 100 to 1000 nM |
| Cc1nc(-c2ccc(C(F)(F)F)cc2)sc1COc1ccc([C@H](CC(=O)O)C2=NOCC2)cc1 [Example 9, (S)-3-(Dihydroisoxazol-3-yl)-3-(4-((4-methyl-2-(4-(trifluoromethyl)phenyl)thiazol-5-yl)methoxy)phenyl)propanoic acid] | 10 to 100 nM |
| Cc1ccc(-c2nc(C)c(COc3ccc([C@H](CC(=O)O)C4=NOCC4)cc3)s2)cc1 [Example 10, (S)-3-(Dihydroisoxazol-3-yl)-3-(4-((4-methyl-2-(4-methylphenyl)thiazol-5-yl)methoxy)phenyl)propanoic acid] | 100 to 1000 nM |
| COc1ccc(-c2nc(COc3ccc([C@H](CC(=O)O)c4ccon4)cc3)no2)cc1 [Example 11, (S)-3-(Isoxazol-3-yl)-3-(4-((5-(4-methoxyphenyl)-1,2,4-oxadiazol-3-yl)methoxy)phenyl)propanoic acid] | 1000 to 10000 nM |
| O=C(O)C[C@@H](c1ccc(OCc2nc(-c3ccc(OCc4ccc(Cl)cc4)cc3)no2)cc1)c1ccon1 [Example 12, (S)-3-(4-((3-(4-(4-Chlorobenzyloxy)phenyl)-1,2,4-oxadiazol-5-yl)methoxy)phenyl)-3-(isoxazol-3-yl)propanoic acid] | 100 to 1000 nM |
| Cc1ccc(-c2ccc(COc3ccc([C@H](CC(=O)O)c4ccon4)cc3)s2)cc1 [Example 13, (S)-3-(Isoxazol-3-yl)-3-(4-((5-p-tolylthiophen-2-yl)methoxy)phenyl)propanoic acid] | 10 to 100 nM |
| CCCCc1ccc(-c2nc(C)c(COc3ccc([C@H](CC(=O)O)C4=NOCC4)cc3)s2)cc1 [Example 14, (S)-3-(4-((2-(4-Butylphenyl)-4-methylthiazol-5-yl)methoxy)phenyl)-3-(4,5-dihydroisoxazol-3-yl)propanoic acid] | 10 to 100 nM |
| Cc1ccc(-c2cc(COc3ccc([C@H](CC(=O)O)c4ccon4)cc3)c(C)o2)cc1 [Example 15, (S)-3-(Isoxazol-3-yl)-3-(4-((2-methyl-5-p-tolylfuran-3-yl)methoxy)phenyl)propanoic acid] | 10 to 100 nM |
| Cn1nc(-c2ccc(C(F)(F)F)cc2)cc1COc1ccc([C@H](CC(=O)O)c2ccon2)cc1 [Example 16, (S)-3-(Isoxazol-3-yl)-3-(4-((1-methyl-3-(4-(trifluoromethyl)phenyl)-1H-pyrazol-5-yl)methoxy)phenyl)propanoic acid] | 100 to 1000 nM |
| Cc1ccc(COc2ccc([C@H](CC(=O)O)c3ccon3)cc2)cc1-c1ccc(CC(C)C)cc1 [Example 17, (S)-3-(4-(3-(4-Isobutyl)-phenyl-4-methylbenzyloxy)phenyl)-3-(isoxazol-3-yl)propanoic acid] | 100 to 1000 nM |

| Structure (SMILES) | EC50 |
| --- | --- |
| CCCCc1ccc(-c2cc(COc3ccc([C@H](CC(=O)O)c4ccon4)cc3)ccc2C)cc1 [Example 18, (S)-3-(4-(3-(4-Butyl)-phenyl-4-methylbenzyloxy)phenyl)-3-(isoxazol-3-yl)propanoic acid] | 100 to 1000 nM |
| CS(=O)(=O)c1cc(COc2ccc([C@H](CC(=O)O)c3ccon3)cc2)ccc1OC(F)(F)F [Example 19, (S)-3-(4-(3-(Methylsulfonyl)-4-(trifluoromethoxy)benzyloxy)-phenyl)-3-(isoxazol-3-yl)propanoic acid] | 1000 to 10000 nM |
| O=C(O)C[C@@H](c1ccc(OCc2ccc(OC(F)(F)F)c(C3=CCCC3)c2)cc1)c1ccon1 [Example 20, (S)-3-(4-(3-Cyclopentenyl-4-(trifluoromethoxy)benzyloxy)-phenyl)-3-(isoxazol-3-yl)propanoic acid] | 10 to 100 nM |
| O=C(O)C[C@@H](c1ccc(OCc2ccc(Cl)c(C(F)(F)F)c2)cc1)c1ccon1 [Example 21, (S)-3-(4-(4-Chloro-3-(trifluoromethyl)benzyloxy)phenyl)-3-(isoxazol-3-yl)propanoic acid] | 10 to 100 nM |
| O=C(O)C[C@@H](c1ccc(OCc2ccc(OC(F)(F)F)c(OC(F)(F)F)c2)cc1)c1ccon1 [Example 22, (S)-3-(4-(3,4-Bis(trifluoromethoxy)benzyloxy)phenyl)-3-(isoxazol-3-yl)propanoic acid] | 10 to 100 nM |
| O=C(O)C[C@@H](c1ccc(OCc2ccc(OC(F)(F)F)c(C3CCCC3)c2)cc1)c1ccon1 [Example 23, (S)-3-(4-(3-Cyclopentyl-4-(trifluoromethoxy)benzyloxy)-phenyl)-3-(isoxazol-3-yl)propanoic acid] | 10 to 100 nM |
| C=C(C)c1cc(COc2ccc([C@H](CC(=O)O)c3ccon3)cc2)ccc1OC(F)(F)F [Example 24, (S)-3-(4-(3-(Prop-1-en-2-yl)-4-(trifluoromethoxy)benzyloxy)-phenyl)-3-(isoxazol-3-yl)propanoic acid] | 10 to 100 nM |
| O=C(O)C[C@@H](c1ccc(OCc2ccc(OC(F)(F)F)c(Br)c2)cc1)c1ccon1 [Example 25, (S)-3-(4-(3-bromo-4-(trifluoromethoxy)benzyloxy)phenyl)-3-(isoxazol-3-yl)propanoic acid] | 10 to 100 nM |
| CC(C)c1cc(COc2ccc([C@H](CC(=O)O)c3ccon3)cc2)ccc1C(C)(C)C [Example 26, (S)-3-(4-(4-tert-Butyl-3-isopropylbenzyloxy)phenyl)-3-(isoxazol-3-yl)propanoic acid] | 100 to 1000 nM |
| O=C(O)C[C@@H](c1ccc(OCc2cccc(NC(=O)c3ccc(C(F)(F)F)cc3)c2)cc1)c1ccon1 [Example 27, (S)-3-(4-(3-(4-(Trifluoromethyl)benzamido)benzyloxy)phenyl)-3-(isoxazol-3-yl)propanoic acid] | 100 to 1000 nM |
| O=C(O)C[C@@H](c1ccc(OCc2ccc(C3=CCCC3)c(OC(F)(F)F)c2)cc1)c1ccon1 [Example 28, (S)-3-(4-(4-Cyclopentenyl-3-(trifluoromethoxy)benzyloxy)-phenyl)-3-(isoxazol-3-yl)propanoic acid] | 10 to 100 nM |
| CC(C)(C)C(=O)Nc1cccc(COc2ccc([C@H](CC(=O)O)c3ccon3)cc2)c1 [Example 30, (S)-3-(4-(3-Pivalamidobenzyloxy)phenyl)-3-(isoxazol-3-yl)propanoic acid] | 1000 to 10000 nM |
| O=C(O)C[C@@H](c1ccc(OCc2cccc(Sc3ccc(C(F)(F)F)cc3)c2)cc1)c1ccon1 [Example 31, (S)-3-(4-(3-(4-(Trifluoromethyl)phenylthio)benzyloxy)phenyl)-3-(isoxazol-3-yl)propanoic acid] | 10 to 100 nM |
| O=C(O)C[C@@H](c1ccc(OCc2cccc(NS(=O)(=O)c3ccc(C(F)(F)F)cc3)c2)cc1)c1ccon1 [Example 32, (S)-3-(4-(3-(4-Trifluoromethylphenylsulfonamido)benzyloxy)-phenyl)-3-(isoxazol-3-yl)propanoic acid] | 100 to 1000 nM |
| O=C(O)C[C@@H](c1ccc(OCc2cccc(S(=O)(=O)c3ccc(C(F)(F)F)cc3)c2)cc1)c1ccon1 [Example 33, (S)-3-(4-(3-(4-(Trifluoromethyl)phenylsulfonyl)benzyloxy)-phenyl)-3-(isoxazol-3-yl)propanoic acid] | 100 to 1000 nM |
| CC(C)(C)OC(=O)N1CC=C(c2cccc(COc3ccc([C@H](CC(=O)O)c4ccon4)cc3)c2)CC1 [Example 34, (S)-3-(4-(3-(1-(Tert-butoxycarbonyl)-1,2,3,6-tetrahydropyridin-4-yl)benzyloxy)phenyl)-3-(isoxazol-3-yl)propanoic acid] | 1000 to 10000 nM |
| C=C(C)c1ccc(COc2ccc([C@H](CC(=O)O)c3ccon3)cc2)cc1OC(F)(F)F [Example 35, (S)-3-(4-(4-(Prop-1-en-2-yl)-3-(trifluoromethoxy)benzyloxy)-phenyl)-3-(isoxazol-3-yl)propanoic acid] | 10 to 100 nM |
